Entries after “also recorded” stand apart in the source; their conditions may differ.

The subject of one data set is PGE2. The data set can be described thus: inhibition of PGE2 production by 5-ASA. The data set is classed as cell-based. To be noted: 5-ASA concentration 1 mM; read-out: production of PGE2 inhibited. On the procedure: (§1) Prostaglandin E2 level analysis. To analyze the levels of prostaglandin E2 (PGE2) production in different cell lines, the cell culture mediums were collected after overnight incubation. To test PGE2 in the tumor tissues, the harvested tumors were homogenized, and the supernatants were obtained after centrifugation. PGE2 in the supernatants was detected using Abcam Prostaglandin E2 ELISA Kit.

In data set [1] the test system is 4T1.2, CT26, MDA-MB-468 and HCT116 tumor cell lines. The data set is described as follows: MTT cytotoxicity of free 5-ASA, DOX and combination, 48 h. The data set is classed as cell-based, murine, human. To be noted: 5-ASA 0~1 mM, all four cell lines. Here is the method: In vitro cytotoxicity. […] Cells were seeded in 96-well plates at a density of 5×10^3 cells/well with 100 μL of complete culture medium (DMEM or RPMI 1640 with 10% FBS and 1% streptomycin/penicillin). […] The absorbances of each well were measured at 590 nm and the cell viability was determined via the following formula: (ODtreated−ODblank)/(ODcontrol−ODblank)×100%.

The test system of data set [2] is PGE2 in CT26 tumor tissue. The data set can be described thus: PGE2 level in tumor tissue, ELISA. To be noted: mouse, in vivo. Set-up: species or system BALB/c mice. On the procedure: as §1
A general note: An ELISA detects its analyte on a solid surface through an enzyme-linked reagent.

In data set [3] the test system is esophageal squamous cell carcinoma. To be noted: cited from earlier work.
A short description of data set [4]: in vitro DOX release by dialysis. The data set is classed as physicochemical. To be noted: free drug control. Here is the method:
In vitro drug release. The release of DOX from DOX-loaded PASA and FASA micelles at different pH was studied using a dialysis method. Briefly, 2 mL of PASA/DOX and FASA/DOX micelles containing 1 mg of DOX and 10 mg of polymer were placed in a dialysis bag (MWCO 3.5 kDa) and immersed into 40 mL of 0.1 M PBS solution containing 0.5% (w/v) Tween 80 at pH 5 and pH 7.4. The experiment was performed in an incubation shaker at 37° C. at 100 rpm. At selected time intervals, 10 μL solution in the dialysis bag and 1 mL medium outside the dialysis bag were withdrawn while same amount of fresh dialysis solution was added for replenishment. The concentration of DOX was examined by fluorescence spectrometry (excitation, 480 nm; emission, 510 to 620 nm). Free DOX was included as control.

Data set [5] relates to 4T1.2 tumor. Set-up: species or system mice. To be noted: mouse, in vivo, iv. Here is the method:
Tissue biodistribution. […] The mice were sacrificed and perfused at 24 h post injection. Tumors and major organs including heart, liver, spleen, lung and kidney were sectioned and observed under the fluorescence microscope (BZ-X710, Japan).

In data set [6] the test system is KB cells. The data set is described as follows: cellular uptake, fluorescence microscopy and flow cytometry. Type of data set: cell-based, human. Here is the method:
Cellular uptake study. KB, 4T1.2, CT26, MDA-MB-468, HCT116 tumor cells and M2 macrophages were seeded to 6-well plates (3×10^5/well), respectively. After overnight incubation, the culture medium was replaced by fresh medium containing free DOX, PASA/DOX and FASA/DOX micelles with or without 100 μM free folate, respectively, at an equivalent DOX concentration of 6 μg/mL (carrier/DOX ratio: 10/1 (w/w)). After incubation for 30 min at 37° C., cells were washed with cold PBS and fixed with PBS containing 4% (w/v) formaldehyde. Nuclei were then stained by DAPI for 5 min. Cells were washed with cold PBS and observed under fluorescence microscope (BZ-X710, Japan).
Cellular uptake of different DOX formulations was also quantified by flow cytometry. KB tumor cells seeded in 6-well plates (3×10^5/well) were treated with various DOX formulations as described above at a DOX concentration of 6 μg/mL. Following incubation at 37° C. for 30 min, cells were washed with cold PBS, fixed in PBS containing 4% (w/v) formaldehyde, and resuspended in 500 μL PBS for flow cytometry analysis with CyAn ADP Analyzer (Beckman Coulter, Inc.). Fluorescence was examined at an excitation wavelength of 480 nm and an emission wavelength of 570 nm. 2×10^4 events were collected for each sample.
Background: In flow cytometry, cells or beads pass a laser one at a time.

Data set [7] in a line: toxicity evaluation (body weight, AST/ALT, histology). Type of data set: in vivo, mice. Here is the method: In vivo therapeutic study. In vivo antitumor efficacy of DOX-loaded PASA and FASA micelles was tested in syngeneic 4T1.2 mouse breast cancer model and CT26 mouse colon cancer model, respectively. Female BALB/c mice (4-6 weeks) were s.c. inoculated with 4T1.2 or CT26 cells (5×10^5 cells per mouse). When the tumor volume reached ~50 mm^3, mice were randomly divided into eight groups (n=5), and treated via tail vein injection with PBS, DOX, 5-ASA+DOX, Doxil, blank PASA micelles, blank FASA micelles, DOX-loaded PASA micelles or DOX-loaded FASA micelles, respectively once every three days for three times (polymer: 50 mg/kg, DOX: 5 mg/kg, 5-ASA: 20 mg/kg). Tumor sizes were monitored every three days following the initiation of the treatment and calculated by the formula: (Length×Width^2)/2. Body weights were also followed as an indication of toxicity. After completion of the experiment, tumor and major organs were collected for hematoxylin and eosin (H&E) staining. Blood samples were collected for biochemical analysis of alanine transaminase (ALT) and aspartate aminotransferase (AST).
Histopathological Analysis. Tumors and major organs including heart, liver, spleen, lung and kidney were excised and fixed in PBS containing 10% formaldehyde after completion of the in vivo therapy study, followed by embedment in paraffin. The paraffin embedded samples were sectioned into slices at 4 μm using an HM 325 Rotary Microtome. The tissue slices were then subjected to H&E staining for histopathological examination under a Zeiss Axiostar plus Microscope (PA, USA).
ALT and AST assessment. Mouse serum was obtained for blood biochemical assessment. ALT and AST were measured by ALT/SGPT or […] liqui-UV assay kit following manufacturer's protocols.

In data set [8] the test system is 4T1.2 tumor. The data set is described as follows: in vivo therapeutic study, syngeneic breast cancer model. Set-up: species or system BALB/c mice. To be noted: 4T1.2 model, treatments on day 0, 3, 6, i.v. From the text:
In vivo therapeutic study. […] Female BALB/c mice (4-6 weeks) were s.c. inoculated with 4T1.2 or CT26 cells (5×10^5 cells per mouse). […] Tumor sizes were monitored every three days following the initiation of the treatment and calculated by the formula: (Length×Width^2)/2. Body weights were also followed as an indication of toxicity. After completion of the experiment, tumor and major organs were collected for hematoxylin and eosin (H&E) staining. Blood samples were collected for biochemical analysis of alanine transaminase (ALT) and aspartate aminotransferase (AST).

Data set [9] deals with KB cells. The data set can be described thus: MTT cytotoxicity of DOX formulations, 30 min treatment then 48 h. Type of data set: cell-based, human. To be noted: FASA up to 200 μg/mL. On the procedure: In vitro cytotoxicity. Cytotoxicity assay was performed on different cancer cell lines (KB, 4T1.2, CT26, MDA-MB-468 and HCT116). Cells were seeded in 96-well plates at a density of 5×10^3 cells/well with 100 μL of complete culture medium (DMEM or RPMI 1640 with 10% FBS and 1% streptomycin/penicillin).
The cytotoxicity of PASA/DOX and FASA/DOX at a carrier/DOX ratio of 10/1 (w/w) were compared to free DOX and Doxil at various DOX concentrations. FASA control was added to cells at concentrations equivalent to the amounts of carrier in the corresponding DOX formulations. In order to confirm folate-mediated active targeting, free folate (100 μM) was added along with the FASA/DOX micelles. Cells were incubated for 30 min in drug-containing medium and then cultured for another 48 h in fresh medium prior to MTT assay.

In a further data set the test system is endometrial cancer cells. To be noted: cited from earlier work.

Regarding `Nc1ccc(O)c(C(=O)O)c1` [5-ASA, 5-aminosalicylic acid], the inhibition at 1000 µM in the data set with PGE2 amounted to 80%. The “anti-proliferation effect / cytotoxicity” value in data set [1] is reported as “did not show any significant anti-proliferation effect; also recorded: minimal cytotoxicity”. The “level of PGE2 in CT26 tumor tissue” value in data set [2] is reported as “minimal effect”.
As for `Cc1ccc(-c2cc(C(F)(F)F)nn2-c2ccc(S(N)(=O)=O)cc2)cc1` [Celecoxib], the “effect on 5-FU antitumor effects” value in data set [3] was “enhances 5-Fluorouracil (5-FU) antitumor effects”.
Turning to `COc1cccc2c1C(=O)c1c(O)c3c(c(O)c1C2=O)C[C@@](O)(C(=O)CO)C[C@@H]3O[C@H]1C[C@H](N)[C@H](O)[C@H](C)O1` [DOX, doxorubicin], the “diffusion across the dialysis membrane” value in [4] is reported as “rapidly diffused across the dialysis membrane”. The “DOX fluorescence signals in tumor tissues” value in the data set with 4T1.2 tumor [5] was “low level and scattered DOX fluorescence signals”. Moreover, in the data set on KB cells [6] (30 min, DOX 6 μg/mL), the cellular uptake result is “efficiently taken up”. In the data set on KB cells [6] (excess free folate 100 μM), the “effect of free folate on cellular uptake” value is on record as “no effect”. For the same compound, in data set [7] (mouse, in vivo), the body weights result is recorded as “slight decrease in body weights on day 9” and the liver histology entry was “hepatocellular vacuolation was found”. The “serum levels of AST / ALT” value in data set [7] (versus control group) was “significantly higher than those in the control group”. Moreover, the “antitumor activity (tumor growth)” value with 4T1.2 tumor [8] is recorded as “modest antitumor activity”. The “cytotoxicity (inhibition of cell proliferation)” value in the data set with KB cells [9] is recorded as “inhibited the cell proliferation in a dose-dependent manner”.
For the compound `CCc1cccc2c3c([nH]c12)C(CC)(CC(=O)O)OCC3` (centres unmarked) [Etodolac], the “inhibition of cancer cells” value in the data set with endometrial cancer cells is given as “dose dependent inhibition of endometrial cancer cells”.
